Here are results for seven compounds from paper PMC11071266, “The putative proton-coupled organic cation antiporter is involved in uptake of triptans into human brain capillary endothelial cells” (Fluids and Barriers of the CNS, 2024).

“And” between values parts separate entries of the source, which are not always exact repeats. Equal values may be shown once. “Also recorded” adds a separate entry of the source. Read-outs that look alike come from different tables or passages of the source.

Data set [1] relates to H^+/OC antiporter. Description: Cellular uptake into hCMEC/D3 cells after intra- and extracellular pH manipulation. The data set is classed as cell-based, human. The following applies: for Cellular uptake after intracellular alkalization: acute exposure to 30 mM NH4Cl vs control pH 7.4; for Cellular uptake at extracellular acidification: extracellular pH 6.8 vs pH 7.4; for Cellular uptake at extracellular alkalization: extracellular pH 8.2 vs pH 7.4; for Proton-gradient dependence of uptake: hCMEC/D3 cells; for Cellular uptake after intracellular acidification: preexposure to 30 mM NH4Cl followed by media change vs control.

A short description of data set [2]: Physicochemical properties extracted from databases. An excerpt:
Triptans are a relatively homogeneous group of drug compounds with similar physicochemical properties, including molecular weights < 400 g/mol and a low to moderate lipophilicity (cLogD values ranging from − 2.1–0.18). […] As a consequence, it is unlikely that triptans cross the brain microvascular endothelium through passive diffusion to a clinically relevant extent. Table 1 summarizes structures and physicochemical properties of the triptans, as well as oxycodone and pyrilamine, which are two prototypical H^+/OC antiporter substrates included in this study.

Data set [3] has as its system H^+/OC antiporter. Briefly: Cellular uptake into hCMEC/D3 cells in absence or presence of pyrilamine or oxycodone. The data set is classed as cell-based, human. The conditions noted are these: for Inhibition by oxycodone (of the compound's uptake) / Inhibition by pyrilamine (of the compound's uptake): triptan 50 µM, asterisks = P level; for Inhibition by oxycodone (of the compound's uptake): 500 µM oxycodone; for Inhibition by pyrilamine (of the compound's uptake): 500 µM pyrilamine. On the procedure:
(§1) The cells were equilibrated in hHBSS with or without inhibitor for 15 min (37 °C, 90 rpm). The compound of interest was spiked into the hHBSS followed by incubation for a designated time. The timeframe of the initial uptake rate was validated into hCMEC/D3 cells (Fig. 1 and Additional file 1). The experiment was terminated by washing three times with ice-cold HBSS supplemented with 0.0375% (v/v) sodium bicarbonate.
The hCMEC/D3 cells were used for time-dependent uptake studies between passage 3–5 (pyrilamine), 7–9 (oxycodone), 6–8 (almotriptan), and 24–31 (eletriptan).
The hCMEC/D3 cells were used for uptake studies of almotriptan, eletriptan, and sumatriptan in the presence of pyrilamine and oxycodone between passage 21–23.
(§2) The cells were permeabilized using 50% (v/v) acetonitrile (HPLC LC–MS grade, VWR International S.A.S, Soeborg, Denmark) in ultrapure water (ELGA, Buckinghamshire, England) for 10 min at room temperature. Thereafter, the cells were scraped off the bottom of the wells and transferred to HPLC vials. Samples from bidirectional transport experiments were transferred directly into HPLC vials. All samples were stored at – 18 °C for later analysis. Calibration curves with standards in the range of 1 or 5–1000 ng/mL were dissolved in 50% (v/v) acetonitrile in ultrapure water (ELGA, Buckinghamshire, England), or in hHBSS(-) for analysis of bidirectional transport samples.
(§3) Liquid chromatography tandem mass spectrometry (LC–MS/MS) were performed using electrospray ionization in positive mode on a micromass Quattro micro™ API tandem quadrupole mass spectrometer (Waters, MA, USA) or an Ultivo triple quadrupole mass spectrometer (Agilent Technologies, CA, USA) coupled to Agilent HPLC system 1100 Series or 1260 Series (Agilent Technologies, CA, USA California), respectively. Applied columns were an InfinityLab Poroshell 120 EC-C18 (3.0 × 50 mm; 2.7 micron, Agilent Technologies, CA, USA) or a Kinetex 2.6 μm XB-C18 (100 Å, 100 × 4.6 mm, Phenomenex Inc., CA, USA). An overview of applied HPLC and MS/MS parameters can be found in Additional file 2 and Additional file 3, respectively. The data acquisition software was MassLynx (V4.1, Waters, MA, USA).

For data set [4] the following is noted: cited from earlier work; for Strongest basic pKa: extracted from DrugBank.
Data set [5] has as its system H^+/OC antiporter. Briefly: Inhibition of [^3H]-pyrilamine uptake into hCMEC/D3 cells. The data set is classed as cell-based, human. The procedure:
(§4) The immortalized human cerebral microvascular endothelial cell line (hCMEC/D3) was maintained in T75-flasks coated with collagen type I from calf skin (C9791, 18.7 μg/mL) and cultured in EBM®-2 medium (Lonza, Basel, Schweiz) supplemented with 5% (v/v) fetal bovine serum (FBS, 10270, Life Technologies, CA, USA or SH3008803, ThermoFisher Scientific, MA, USA), 100 U/mL penicillin and 100 μg/ml streptomycin, 1 ng/mL human basic fibroblast growth factor (bFGF), 1.4 μM hydrocortisone, 1% (v/v) chemically defined lipid concentrate (ThermoFisher Scientific, MA, USA), 10 mM N-2-hydroxyethylpiperazine-N-2-ethane sulfonic acid (HEPES) and 5 μg/mL ascorbic acid (5% CO2, 37 °C). […] For experiments, cells were seeded into 24-well plates (6.7·10^4 cells/cm^2) and cultured for four continuous days. The cells were used for experiments between passage 3–31.
as §1
The inhibitory constant at 50% inhibition (IC50) was determined by fitting the uptake flux (Jss) as function of the logarithmic inhibitor concentration to Eq. 2.2 Jss=Jmin+(Jmax-Jmin)/1+10^logIC50-InH where [I] is the inhibitor concentration, nH is the Hill coefficient.
The hCMEC/D3 cells were used for [^3H]-pyrilamine inhibition studies between passage 3–6 (pyrilamine, oxycodone), 16–18 (almotriptan), 7–13 (eletriptan), 25–27 (frovatriptan), 3–8 (naratriptan), 16–18 (rizatriptan), 12–14 (sumatriptan), and 14–16 (zolmitriptan).
The cells were permeabilized using 0.1% (v/v) Triton X-100 in ultrapure water (ELGA, Buckinghamshire, England) for 10 min at room temperature. Thereafter, the cells were scraped off the bottom of the wells, transferred to scintillation vials, and mixed with 2 mL of Ultima Gold 241 TM (Perkin Elmer, MA, USA). The samples were analyzed using a Tri-Carb 2910 TR Liquid Scintillation Analyzer (Perkin Elmer, MA, USA).

The subject of data set [6] is H^+/OC antiporter. Description: Concentration-dependent cellular uptake into hCMEC/D3 cells (Michaelis-Menten kinetics). The class given is cell-based, human. The conditions noted are these: for Concentration-dependent uptake (saturability): hCMEC/D3 cells, tested concentration range; for Association with H^+/OC antiporter: summary of uptake and inhibition studies in hCMEC/D3 cells; for Apparent Km / Jmax / Km: uptake into hCMEC/D3 cells; for Km: read-out: Apparent Km. The procedure:
as §4, §1
To assess the concentration-dependent uptake, the uptake flux was fitted to the Michaelis–Menten equation, Eq. 1.1 Jss=Jmax[S]/Km+[S] where Jss represents flux under steady state, Jmax is the maximal flux, [S] is the substrate concentration, and Km is the Michaelis–Menten constant.
The hCMEC/D3 cells were used for concentration-dependent uptake studies between passage 21–23 (pyrilamine), 11–13 (oxycodone), 12–14 (almotriptan), 16–18 (eletriptan), and 12–14 (sumatriptan).
as §2, §3
The protein content of hCMEC/D3 cells was determined for normalization purposes. Cells were washed with ice-cold phosphate buffered saline following cell lysis in cell extraction buffer (FNN0011, Thermo Fisher Scientific, MA, USA) supplemented with 1 × cOmplete™ Protease Inhibitor Cocktail (04693116001, Roche, Basel, Schweiz), 1 mM phenylmethylsulfonyl fluoride, and […] for 30 min on ice.

Data set [7] deals with organic cation transporter 1 (OCT1). Details: method as in PMID 35955563. The following applies: cited from earlier work.
Data set [8] has as its system H^+/OC antiporter. More on the design: method as in PMID 35955563. The conditions noted are these: trans-stimulation in hCMEC/D3 cells; cited from earlier work.
Data set [9] relates to P-gp. More on the design: method as in PMID 12814962. The conditions noted are these: brain Kp in wild type and mdr1a knockout mice; cited from earlier work.
Setting [10] is: [^3H]-pyrilamine 1 µCi/mL, 48 nM, read-out: Apparent IC50 on [^3H]-pyrilamine uptake.
Setting [11] is: read-out: Apparent IC50 on [^3H]-pyrilamine uptake, [^3H]-pyrilamine 1 µCi/mL, 48 nM.

As for `CN(C)CCc1c[nH]c2ccc(CS(=O)(=O)N3CCCC3)cc12` [Almotriptan], in [1], the “Cellular uptake after intracellular alkalization” value is on record as “decreased”, the “Cellular uptake at extracellular acidification” value was “reduced”, the “Cellular uptake at extracellular alkalization” value was “increased” and the “Proton-gradient dependence of uptake” value was “yes”. Also, the “Cellular uptake after intracellular acidification” value in data set [1] is on record as “statistically significant increase”. Also, the “Overall charge pH 7.4” value in data set [2] was “Positive”. In data set [3], the “Inhibition by oxycodone (of the compound's uptake)” value (from here on “Inhibition by oxycodone”) is reported as “no” and the “Inhibition by pyrilamine (of the compound's uptake)” value (from here on “Inhibition by pyrilamine”) was “slightly inhibited; also recorded: yes (*)”. For the same compound, the “Inhibition by oxycodone” value in data set [3] (listed as almotriptan) is “did not inhibit”. The “Strongest basic pKa” value in data set [4] is recorded as 9.6. Besides, in data set [4] (extracted from ChemSpider), the “cLogD pH 7.4” value is 0.3. Besides, in data set [5] (setting [10]), the IC50 is ~305 µM and 305 µM. Further, in data set [6], the “Concentration-dependent uptake (saturability)” value is given as “did not show saturable uptake”, the “Association with H^+/OC antiporter” value is reported as “(substrate) decent inhibitor” and the “Apparent Km” value was “not saturable (in tested range)”.

Regarding `CN[C@@H]1CCc2[nH]c3ccc(C(N)=O)cc3c2C1` [Frovatriptan], in data set [7], the OCT1 substrate entry is reported as “substrates of OCT1”. Besides, the “Overall charge pH 7.4” value in data set [2] is listed as “Positive”. Further, the “H^+/OC antiporter substrate” value in [8] is “did not appear to be H^+/OC antiporter substrate candidates”. For the same compound, in data set [4], the “cLogD pH 7.4” value is recorded as “− 1.5”. In addition, the “Apparent IC50 on [^3H]-pyrilamine uptake” value in data set [5] ([^3H]-pyrilamine 1 µCi/mL, 48 nM) is recorded as “did not exhibit sufficient inhibition”.

On to `CNS(=O)(=O)CCc1ccc2[nH]cc(C3CCN(C)CC3)c2c1` [Naratriptan], for which the “Overall charge pH 7.4” value in data set [2] was “Positive”. For the same compound, in data set [4], the “Strongest basic pKa” value was 9.2. For the same compound, in data set [9], the P-gp substrate entry is “substrates of P-gp”. Also, the IC50 in data set [5] (setting [10]) turned out to be 460 ± 41 µM.

As for `COc1ccc2c3c1O[C@H]1C(=O)CC[C@@]4(O)[C@@H](C2)N(C)CC[C@]314` [Oxycodone], in data set [1], the “Cellular uptake after intracellular alkalization” value is “reduced cellular uptake”, the “Cellular uptake at extracellular acidification” value is recorded as “reduced cellular uptake”, the “Cellular uptake at extracellular alkalization” value is given as “increased cellular uptake” and the “Cellular uptake after intracellular acidification” value is on record as “increased cellular uptake”. In data set [2], the “Overall charge pH 7.4” value is listed as “Positive”. The “Time-dependent uptake in presence of 1000 µM pyrilamine” value in data set [3] (oxycodone 500 µM) is given as “reduced”. Also, the “Strongest basic pKa” value in data set [4] is 8.8. Also, the “cLogD pH 7.4” value in data set [4] (extracted from ChemSpider) is recorded as 0.5. The IC50 in [5] (setting [11]) stood at 225 ± 57 µM. The IC50 in data set [5] (read-out: Apparent IC50 on [^3H]-pyrilamine uptake, [^3H]-pyrilamine 1 µCi/mL, 48 nM, listed as oxycodone) was about 225 µM. Also, in [6], the Jmax is given as 5.3 ± 1.0 nmol·min^−1·mg protein^−1 and the Km was 130 ± 57 µM. Also, the Km in data set [6] (listed as oxycodone) was about 130 µM.

For the compound `COc1ccc(CN(CCN(C)C)c2ccccn2)cc1` [Pyrilamine], in data set [1], the “Cellular uptake after intracellular alkalization” value is on record as “reduced cellular uptake”, the “Cellular uptake at extracellular acidification” value is “reduced cellular uptake”, the “Cellular uptake at extracellular alkalization” value was “increased cellular uptake” and the “Cellular uptake after intracellular acidification” value is reported as “increased cellular uptake”. The “Overall charge pH 7.4” value in data set [2] is listed as “Positive”. In addition, the “Time-dependent uptake in presence of 500 µM oxycodone” value in [3] ([^3H]-pyrilamine 48 nM) was “reduced”. Further, the “cLogD pH 7.4” value in data set [4] is 1.1. For the same compound, the IC50 in data set [5] ([^3H]-pyrilamine 1 µCi/mL, 48 nM, listed as pyrilamine, read-out: Apparent IC50 on [^3H]-pyrilamine uptake) was about 11 µM. In addition, the IC50 in [5] (setting [10]) was 11 ± 6 µM. Moreover, in data set [6], the Jmax is on record as 5.1 ± 0.7 nmol·min^−1·mg protein^−1 and the Km amounted to 93 ± 17 µM. Moreover, the Km in data set [6] (listed as pyrilamine) is about 93 µM.

For `CN(C)CCc1c[nH]c2ccc(Cn3cncn3)cc12` [Rizatriptan], the “Overall charge pH 7.4” value in data set [2] is recorded as “Positive”. The “cLogD pH 7.4” value in [4] is 0.04. Besides, in data set [9], the P-gp substrate entry is on record as “substrates of P-gp”. Further, the IC50 in data set [5] (setting [10]) was found to be 719 ± 243 µM.

Turning to `CNS(=O)(=O)Cc1ccc2[nH]cc(CCN(C)C)c2c1` [Sumatriptan], in [1], the “Cellular uptake after intracellular alkalization” value is given as “decreased”, the “Cellular uptake at extracellular acidification” value is listed as “reduced”, the “Cellular uptake at extracellular alkalization” value is “increased” and the “Proton-gradient dependence of uptake” value was “yes”. Moreover, the “Cellular uptake after intracellular acidification” value in data set [1] is reported as “decreased uptake”. Besides, the “Overall charge pH 7.4” value in data set [2] was “Positive”. Further, in data set [3], the “Inhibition by oxycodone” value is reported as “yes (***)” and the “Inhibition by pyrilamine” value is listed as “yes (**)”. Also, in [3] (listed as sumatriptan), the “Inhibition by oxycodone” value is recorded as “inhibited the uptake of sumatriptan” and the “Inhibition by pyrilamine” value is on record as “inhibited the uptake of sumatriptan”. Also, the IC50 in [5] (setting [11]) was determined as 1460 ± 189 µM. Besides, in data set [6], the “Concentration-dependent uptake (saturability)” value is on record as “linear increase as function of increasing concentrations”, the “Association with H^+/OC antiporter” value is on record as “(substrate) very poor inhibitor” and the “Apparent Km” value is on record as “not saturable (in tested range)”.
